Test system: Splenic lymphocytes
Assay: Lymphocyte proliferation test (XTT)
Format: cell-based, mice
Procedure: Splenic lymphocytes were split into 96-well plates at an initial density of 2×10^4 cells per well and were incubated with different doses of inosine under control, 40 μg/ml of LPS or 10 μg/ml of PHA condition, respectively. After 96 h, cell viability was measured by TACS XTT cell proliferation assay kit (Trevigen, Inc. Gaithersburg, Md.).

## O=c1[nH]cnc2c1ncn2[C@@H]1O[C@H](CO)[C@@H](O)[C@H]1O [inosine]
96 h treatment, 10 μg/ml of PHA
  proliferation of PHA-stimulated T-lymphocytes: does not inhibit
96 h treatment, 40 μg/ml of LPS
  proliferation of LPS-stimulated B-lymphocytes: does not inhibit
Different doses of inosine, 96 h
  proliferation of lymphocytes in vitro: did not inhibit
